The values below are quoted from earlier work in patent WO2005058299A1, “Phenethanolamine derivatives for treatment of respiratory diseases” (Glaxo Group Ltd, priority 2003, dated 2005).

In the data set the test system is PDE4. Particulars: IC50 for PDE4 form which binds rolipram with high affinity divided by IC50 for form which binds rolipram with low affinity.
Take `COc1ccc([C@]2(C#N)CC[C@@H](C(=O)O)CC2)cc1OC1CCCC1` [cis 4-cyano-4-(3-cyclopentyloxy-4-methoxyphenyl)cyclohexan-1-carboxylic acid]: the IC50 ratio is recorded as no less than 0.1.

`COC(=O)C1CC(C#N)(c2ccc(OC(F)F)c(OCC3CC3)c2)CCC1=O` (stereo not drawn) [2-carbomethoxy-4-cyano-4-(3-cyclopropylmethoxy-4-difluoromethoxyphenyl)cyclohexan-1-one]: the IC50 ratio is reported as no less than 0.1.

Turning to “c/s-[4-cyano-4-(3-cyclopropylmethoxy-4- difluoromethoxyphenyl)cyclohexan-1-ol]”, the IC50 ratio is no less than 0.1.
